Data on ten compounds can be found in ChEMBL document CHEMBL1201862, “PubChem BioAssay data set” (2004).

Among the test systems are NCI/ADR-RES; A549; HCT-15; SR; U-251; SF-268; T47D; HCT-116; SK-OV-3; DU-145; MCF7; PC-3; HT-29; NCI-H460; MDA-MB-435.
What all share (experiment): NCI-60 cell line screen, 48 h

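Growth conditions: 96-well plates. Treatment: test compound, 48 hours, 5 concentrations. Analysis: linear interpolation between bracketing concentrations; unreached endpoints set to highest concentration. GI50 is the concentration that inhibits growth by half.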 Active and inactive are the calls of the source. Cut-off read from the data, not from the text of the source: active = GI50 up to about 1.1 µM and inactive = higher.

As to `Cc1ccc(-c2cs/c(=N\c3ccccc3)n2NC(=O)c2ccncc2)cc1`, the GI50 in the assay on NCI/ADR-RES is 28.3 µM (inactive); in the assay with A549 it was 31.8 µM (inactive); in the assay with HCT-15 it was 42.5 µM; with SR it was 34.8 µM (inactive); in the assay on U-251 it was 19.1 µM (inactive); in the assay with SF-268 it was 42.1 µM (inactive). In addition, the GI50 in the assay with T47D was 24.5 µM (inactive); in the assay with HCT-116, 31.8 µM (inactive); in the assay with SK-OV-3 it was 33.7 µM (inactive); in the assay on DU-145 it was 56.2 µM (inactive); in the assay on MCF7, 33.3 µM (inactive); in the assay with PC-3 it was 27.4 µM (inactive). Further, the GI50 with HT-29 is 21 µM (inactive); in the assay on NCI-H460 it was 36.3 µM (inactive); in the assay on MDA-MB-435, 29.4 µM (inactive).
As to `Cn1c(=O)c2c(ncn2Cc2ccc(O)c([N+](=O)[O-])c2)n(C)c1=O`, the GI50 with NCI/ADR-RES was > 100 µM (inactive); in the assay on A549 it was > 100 µM (inactive); in the assay on HCT-15 it was above 100 µM; in the assay on SR it was > 100 µM (inactive); with U-251 it was > 100 µM (inactive); with SF-268 it was > 100 µM (inactive). Further, the GI50 in the assay on T47D, with HCT-116, in the assay with SK-OV-3, in the assay on DU-145, with MCF7 and in the assay on PC-3 was > 100 µM (inactive) in each case. The GI50 in the assay with HT-29, in the assay with NCI-H460 and in the assay with MDA-MB-435 was > 100 µM (inactive) in each case.
In the case of `O=CNCCCN1CCN(CCCNC=O)CC1`, the GI50 with NCI/ADR-RES is > 100 µM (inactive); with A549, > 100 µM (inactive); in the assay with HCT-15, above 100 µM; in the assay with SR it was > 100 µM (inactive); in the assay with U-251 it was > 100 µM (inactive); in the assay with SF-268, 4.88 µM (inactive). For the same compound, the GI50 in the assay on T47D, in the assay on HCT-116, with SK-OV-3, in the assay on DU-145, in the assay with MCF7 and in the assay with PC-3 was > 100 µM (inactive) throughout. In addition, the GI50 in the assay on HT-29 and in the assay with MDA-MB-435 was > 100 µM (inactive) each time.
As for `N#CC1=C(N)N2C(=O)/C(=C/c3ccccc3O)N=C2S1`, the GI50 in the assay on NCI/ADR-RES is > 100 µM (inactive); in the assay with A549 it was > 100 µM (inactive); in the assay on HCT-15, 33.5 µM; with SR it was 23.6 µM (inactive); in the assay with U-251 it was > 100 µM (inactive); with SF-268 it was 41.1 µM (inactive). For the same compound, the GI50 with T47D was > 100 µM (inactive); in the assay on HCT-116, 68.1 µM (inactive); in the assay on SK-OV-3 it was > 100 µM (inactive); in the assay on DU-145, > 100 µM (inactive); with MCF7, 48.1 µM (inactive); in the assay with PC-3 it was > 100 µM (inactive). Also, the GI50 with HT-29 is 37.7 µM (inactive); with MDA-MB-435, > 100 µM (inactive).
Regarding `CC1=NC(=N)N=C(C)C1/N=N/c1ccc2[nH]c(C)nc2c1` (stereo not drawn), the GI50 in the assay with NCI/ADR-RES was > 100 µM (inactive); with A549, > 100 µM (inactive); in the assay on HCT-15, above 100 µM; in the assay on U-251, > 100 µM (inactive); in the assay on SF-268 it was > 100 µM (inactive); in the assay with T47D it was > 100 µM (inactive). Moreover, the GI50 in the assay with HCT-116, in the assay with SK-OV-3, in the assay with DU-145, in the assay on MCF7, in the assay with PC-3 and in the assay with HT-29 was > 100 µM (inactive) each time. For the same compound, the GI50 in the assay on NCI-H460 and with MDA-MB-435 was > 100 µM (inactive) each time.
Take `COC(=O)C(=O)C(C(=O)C(=O)Nc1cccc(OC)c1)c1nc2ccc(Cl)cc2nc1O` (stereo not drawn): the GI50 with NCI/ADR-RES is > 100 µM (inactive); in the assay with A549, > 100 µM (inactive); with HCT-15, above 100 µM; in the assay with U-251, > 100 µM (inactive); in the assay with SF-268, > 100 µM (inactive); with T47D it was > 100 µM (inactive). For the same compound, the GI50 in the assay with HCT-116, with SK-OV-3, in the assay with DU-145, in the assay with MCF7, in the assay on PC-3 and in the assay on HT-29 was > 100 µM (inactive) in each case. Also, the GI50 was > 100 µM (inactive) with NCI-H460 and 83.6 µM (inactive) in the assay with MDA-MB-435.
Take `CC(C)C1=CCC2C(=C1)CCC1C(C)(C(=O)O)CCCC21C` (stereo not drawn): the GI50 in the assay on NCI/ADR-RES was 76.2 µM (inactive); in the assay on A549 it was > 100 µM (inactive); in the assay on HCT-15, above 100 µM; in the assay on SR it was > 100 µM (inactive); in the assay on U-251, > 100 µM (inactive); in the assay with SF-268, > 100 µM (inactive). For the same compound, the GI50 with T47D, in the assay with HCT-116, in the assay on SK-OV-3, in the assay with DU-145, with MCF7 and in the assay on PC-3 was > 100 µM (inactive) each time. Besides, the GI50 with HT-29 is 78.5 µM (inactive); in the assay on MDA-MB-435, > 100 µM (inactive).
As to `O=[N+]([O-])C(=C(NCc1ccccc1)NCc1ccccc1)C(Cl)=C(Cl)Cl`, the GI50 in the assay on NCI/ADR-RES is 45.1 µM (inactive); in the assay with A549 it was 42.7 µM (inactive); in the assay on HCT-15, 23.3 µM; with SR, 23.8 µM (inactive); in the assay with SF-268, 20.8 µM (inactive); in the assay on T47D, 27.3 µM (inactive). The GI50 was 30 µM (inactive) in the assay on HCT-116; 51.1 µM (inactive) in the assay on SK-OV-3; 69.3 µM (inactive) in the assay with DU-145; 41.1 µM (inactive) in the assay on MCF7; 32.1 µM (inactive) in the assay with PC-3; 39.5 µM (inactive) in the assay with HT-29. Besides, the GI50 is 37.5 µM (inactive) in the assay with NCI-H460 and 22.9 µM (inactive) in the assay with MDA-MB-435.
Turning to `Cc1ccc2c(O)cc(-c3ccc(Cl)cc3)nc2n1`, the GI50 in the assay on NCI/ADR-RES is 8.89 µM (inactive); in the assay with A549 it was 2.73 µM (inactive); in the assay on HCT-15, 3.31 µM; in the assay on SR it was 4.33 µM (inactive); in the assay with U-251 it was 5.47 µM (inactive); with SF-268, 27 µM (inactive). The GI50 in the assay with T47D was 0.764 µM (active); in the assay on HCT-116, 3.1 µM (inactive); in the assay with SK-OV-3, 6.64 µM (inactive); in the assay with DU-145, 6.05 µM (inactive); in the assay on MCF7, 3.35 µM (inactive); in the assay on PC-3 it was 2.96 µM (inactive). Besides, the GI50 with HT-29 was 3.3 µM (inactive); in the assay with NCI-H460, 3.69 µM (inactive); in the assay with MDA-MB-435 it was 1.32 µM (inactive).
As to `CN(C)Cc1cc(C(=O)/C=C/c2ccc(Cl)cc2Cl)cc(CN(C)C)c1O`, the GI50 in the assay on NCI/ADR-RES was 1.75 µM (inactive); with A549, 2.89 µM (inactive); with HCT-15 it was 3.17 µM; in the assay on SR it was 4.03 µM (inactive); with U-251 it was 3.52 µM (inactive); in the assay with SF-268 it was 3.88 µM (inactive). Besides, the GI50 in the assay on T47D is 5.01 µM (inactive); in the assay with HCT-116, 3.07 µM (inactive); in the assay with DU-145, 4.73 µM (inactive); in the assay with MCF7, 2.33 µM (inactive); in the assay with PC-3, 1.65 µM (inactive); in the assay on HT-29, 2.07 µM (inactive). For the same compound, the figures for the GI50 in the assay with NCI-H460 and with MDA-MB-435 were 1.46 µM (inactive) and 4.06 µM (inactive), respectively.
